For 47 molecules, IC50 results are on record in patent US20230382904A1, “SUBSTITUTED 4-([1,2,4]TRIAZOLO[1,5-a]PYRIDIN-6-YL)THIOPHENE-2-CARBOXAMIDE DERIVATIVES AND USE THEREOF” (The Johns Hopkins University, priority 2020, published 2023).

Test [1] deals with LZK (Homo sapiens (Human), UniProt O43283). Briefly: LZK biochemical assay (TR-FRET, MKK7 phosphorylation). The method, boiled down: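 Catalytic-domain LZK (10 nM) phosphorylated His-MKK7 (15 nM) with 15 μM ATP for 90 min at RT. Phospho-T275/S277 detected by Eu-anti-phospho-MKK7/XL665-anti-His TR-FRET after 16 h at 32° C, using the 665/Eu ratio. Buffer: 50 mM Hepes pH 7.5, 10 mM MgCl2, 1 mM DTT.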
(In TR-FRET formats the signal depends on donor and acceptor labels being close together.)

Test [2] deals with DLK (Homo sapiens (Human), UniProt Q12852). The test is described as follows: DLK biochemical assay (TR-FRET, MKK7 phosphorylation). The method, boiled down:
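Catalytic-domain DLK (10 nM) phosphorylates His-MKK7 (15 nM) with 60 μM ATP, 90 min at RT, in pH 7.5 HEPES buffer. Phospho-T275/S277 read by TR-FRET (Eu anti-phospho donor, XL665 anti-His acceptor) after 16 h detection, at 37° C. in 1536 or 4° C. in 384 format.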

Sequence of LZK (O43283 168-409): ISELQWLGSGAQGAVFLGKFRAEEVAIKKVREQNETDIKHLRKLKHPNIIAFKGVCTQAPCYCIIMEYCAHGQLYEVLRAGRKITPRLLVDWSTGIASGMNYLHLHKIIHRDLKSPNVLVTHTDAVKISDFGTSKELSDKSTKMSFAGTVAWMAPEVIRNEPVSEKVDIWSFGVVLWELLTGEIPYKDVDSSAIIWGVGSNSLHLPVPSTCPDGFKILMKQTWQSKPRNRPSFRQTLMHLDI
Sequence of DLK (Q12852 1-520): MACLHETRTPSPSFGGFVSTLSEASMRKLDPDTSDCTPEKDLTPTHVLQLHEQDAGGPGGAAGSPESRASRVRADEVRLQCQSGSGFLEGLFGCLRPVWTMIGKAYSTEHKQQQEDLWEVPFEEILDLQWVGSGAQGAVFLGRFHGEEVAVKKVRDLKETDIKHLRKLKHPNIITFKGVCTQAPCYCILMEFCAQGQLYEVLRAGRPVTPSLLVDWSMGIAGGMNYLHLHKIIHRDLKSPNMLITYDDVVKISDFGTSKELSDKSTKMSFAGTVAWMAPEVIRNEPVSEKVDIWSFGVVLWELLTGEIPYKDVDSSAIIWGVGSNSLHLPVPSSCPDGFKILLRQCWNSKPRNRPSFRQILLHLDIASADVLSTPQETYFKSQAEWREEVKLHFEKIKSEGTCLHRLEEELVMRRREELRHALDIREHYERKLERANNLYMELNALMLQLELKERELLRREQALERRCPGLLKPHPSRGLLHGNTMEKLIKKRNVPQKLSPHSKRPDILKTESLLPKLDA

As for `CC[C@H](C)NC(=O)c1cc(-c2csc(C(=O)N[C@@H](C)c3ccccc3)c2)cn2nc(N)nc12` [Compound 88], the IC50 in test [1] was found to be 37 nM; in test [2] it was 3.2 nM.

On to `CC[C@H](NC(=O)c1cc(-c2cc(C(=O)N[C@@H](C)CC)c3nc(N)nn3c2)cs1)c1ccccc1` [Compound 89], for which the IC50 amounted to 51 nM in test [1] and 3.7 nM in test [2].

On to `Cc1ccc([C@H](C)NC(=O)c2cc(-c3cc(C(=O)NC(C)C)c4nc(N)nn4c3)cs2)cc1` [Compound 90], for which the IC50 in test [1] was 490 nM; in test [2], 21 nM.

As to `C[C@H](NC(=O)c1cc(-c2cc(C(=O)NC3CCC3)c3nc(N)nn3c2)cs1)c1ccc(C(F)(F)F)cc1` [Compound 92], the figures for the concentration for half-maximal inhibition (IC50) in test [1] and in test [2] were 2000 nM and 55 nM, respectively.

On to `CC[C@H](C)NC(=O)c1cc(-c2csc(C(=O)NCc3ccc(F)cc3)c2)cn2nc(N)nc12` [Compound 93], for which the IC50 in test [1] was 41 nM; in test [2], 11 nM.

Turning to `CC[C@H](C)NC(=O)c1cc(-c2csc(C(=O)N[C@@H](C)c3ccc(F)cc3)c2)cn2nc(N)nc12` [Compound 94, 2-Amino-N-[(2S)-butan-2-yl]-6-(5-{[(1S)-1-(4-fluorophenyl)ethyl]carbamoyl}thiophen-3-yl)[1,2,4]triazolo[1,5-a]pyridine-8-carboxamide], the IC50 came out at 34 nM in test [1] and 4.75 nM in test [2].

Turning to `CC(C)NC(=O)c1cc(-c2csc(C(=O)N[C@@H](C)c3nc4ccccc4o3)c2)cn2nc(N)nc12` [Compound 95], the IC50 is 130 nM in test [1] and 14 nM in test [2].

As to `CC(C)NC(=O)c1cc(-c2csc(C(=O)N[C@H](C)c3ccccc3)c2)cn2nc(N)nc12` [Compound 97], the results for the IC50 in test [1] and in test [2] were 140 nM and 16 nM, respectively.

As for `C[C@H](NC(=O)c1cc(-c2cc(C(=O)N[C@H]3CCOC3)c3nc(N)nn3c2)cs1)c1ccc(F)cc1` [Compound 98], the IC50 in test [1] amounted to 60 nM; in test [2] it was 7.5 nM.

As for `CC(C)NC(=O)c1cc(-c2csc(C(=O)N(C)[C@@H](C)c3ccc(F)cc3)c2)cn2nc(N)nc12` [Compound 99], the IC50 in test [1] turned out to be 2400 nM; in test [2], 330 nM.

`C[C@H](NC(=O)c1cc(-c2cc(C(=O)N[C@@H](C)CO)c3nc(N)nn3c2)cs1)c1nc2ccccc2o1` [Compound 100]: the IC50 is 200 nM in test [1] and 5.8 nM in test [2].

Regarding `C[C@H](NC(=O)c1cc(-c2cc(C(=O)N[C@H]3CCOC3)c3nc(N)nn3c2)cs1)c1ccccc1` [Compound 102], the results for the IC50 in test [1] and in test [2] were 71 nM and 4.3 nM, respectively.

Consider `Nc1nc2c(C(=O)N[C@H]3CCOC3)cc(-c3csc(C(=O)NCc4ccccc4)c3)cn2n1` [Compound 103], for which the IC50 amounted to 160 nM in test [1] and 25 nM in test [2].

For the molecule `CC[C@H](NC(=O)c1cc(-c2cc(C(=O)N[C@@H]3CCOC3)c3nc(N)nn3c2)cs1)c1ccccc1` [Compound 104], the IC50 in test [1] was determined as 30.5 nM; in test [2], 1.7 nM.

Consider `C[C@H](NC(=O)c1cc(-c2cc(C(=O)N[C@H]3CCOC3)c3nc(N)nn3c2)cs1)c1ccc(C(F)(F)F)cc1` [Compound 105], for which the IC50 came out at 550 nM in test [1] and 20 nM in test [2].

`Cc1ccc([C@H](C)NC(=O)c2cc(-c3cc(C(=O)N[C@H]4CCOC4)c4nc(N)nn4c3)cs2)cc1` [Compound 106]: the results for the IC50 in test [1] and in test [2] were 160 nM and 11 nM, respectively.

Consider `COC[C@H](NC(=O)c1cc(-c2cc(C(=O)N[C@H]3CCOC3)c3nc(N)nn3c2)cs1)c1ccccc1` [Compound 107], for which the IC50 in test [1] amounted to 46 nM; in test [2] it was 5.5 nM.

As for `CC[C@H](NC(=O)c1cc(-c2cc(C(=O)NC(C)C)c3nc(N)nn3c2)cs1)c1ccc(F)cc1` [Compound 108], the IC50 in test [1] turned out to be 25 nM; in test [2], 4 nM.

Turning to `C[C@H](NC(=O)c1cc(-c2cc(C(=O)N[C@H](CO)C(F)(F)F)c3nc(N)nn3c2)cs1)c1ccc(F)cc1` [Compound 109], the figures for the concentration for half-maximal inhibition (IC50) in test [1] and in test [2] were 120 nM and 7.5 nM, respectively.

For `C[C@@H](CO)NC(=O)c1cc(-c2csc(C(=O)N(C)[C@@H](C)c3ccc(F)cc3)c2)cn2nc(N)nc12` [Compound 110], the IC50 in test [1] came out at 470 nM; in test [2], 82 nM.

For the molecule `Nc1nc2c(C(=O)N[C@H](CO)C(F)(F)F)cc(-c3csc(C(=O)NCc4ccc(F)cc4)c3)cn2n1` [Compound 111], the values for the IC50 in test [1] and in test [2] were 290 nM and 44 nM, respectively.

On to `Nc1nc2c(C(=O)NC3CNC3)cc(-c3csc(C(=O)NCc4ccc(F)cc4)c3)cn2n1` [Compound 113], for which the IC50 in test [1] stood at 660 nM; in test [2], 220 nM.

Take `C[C@H](NC(=O)c1cc(-c2cc(C(=O)NC3CNC3)c3nc(N)nn3c2)cs1)c1ccc(F)cc1` [Compound 114]: the IC50 in test [1] came out at 710 nM; in test [2], 47 nM.

As to `CC[C@H](NC(=O)c1cc(-c2cc(C(=O)N[C@H]3CCOC3)c3nc(N)nn3c2)cs1)c1ccc(F)cc1` [Compound 115], the IC50 in test [1] came to 41 nM; in test [2], 1.3 nM.

Turning to `CC[C@H](C)NC(=O)c1cc(-c2csc(C(=O)N[C@@H](COC)c3ccccc3)c2)cn2nc(N)nc12` [Compound 116], the IC50 in test [1] worked out at 14 nM; in test [2] it was 2.2 nM.

On to `CC(C)NC(=O)c1cc(-c2csc(C(=O)NC(COC(F)(F)F)c3ccccc3)c2)cn2nc(N)nc12` (stereo not shown) [Compound 117], for which the values for the IC50 in test [1] and in test [2] were 240 nM and 21 nM, respectively.

Regarding `CC(C)NC(=O)c1cc(-c2csc(C(=O)N[C@@H](C)c3ccc(OC(F)(F)F)cc3)c2)cn2nc(N)nc12` [Compound 118], the IC50 stood at 5200 nM in test [1] and 210 nM in test [2].

In the case of `CC(C)NC(=O)c1cc(-c2csc(C(=O)NC3CCCc4cc(F)ccc43)c2)cn2nc(N)nc12` (stereo not shown) [Compound 119], the IC50 in test [1] turned out to be 505 nM; in test [2] it was 24 nM.

As to `CC(C)NC(=O)c1cc(-c2csc(C(=O)N[C@H]3CCOc4ccccc43)c2)cn2nc(N)nc12` [Compound 120], the IC50 is 110 nM in test [1] and 6.9 nM in test [2].

As for `CC(C)NC(=O)c1cc(-c2csc(C(=O)NC3CC(C)(C)Oc4ccccc43)c2)cn2nc(N)nc12` (stereo not shown) [Compound 121], the IC50 in test [1] was determined as 520 nM; in test [2] it was 17 nM.

With `CC(C)NC(=O)c1cc(-c2csc(C(=O)N[C@H]3CCCc4ccccc43)c2)cn2nc(N)nc12` [Compound 122], the IC50 in test [1] turned out to be 360 nM; in test [2], 6 nM.

For `CC(C)NC(=O)c1cc(-c2csc(C(=O)NC3(c4ccc(F)cc4)CCCC3)c2)cn2nc(N)nc12` [Compound 123], the IC50 in test [1] came out at 83 nM; in test [2], 2.9 nM.

As to `COc1ccc(C(C)(C)NC(=O)c2cc(-c3cc(C(=O)NC(C)C)c4nc(N)nn4c3)cs2)cc1` [Compound 124], the concentration for half-maximal inhibition (IC50) stood at 330 nM in test [1] and 17 nM in test [2].

`COc1cccc(C(C)(C)NC(=O)c2cc(-c3cc(C(=O)NC(C)C)c4nc(N)nn4c3)cs2)c1` [Compound 125]: the IC50 turned out to be 220 nM in test [1] and 18 nM in test [2].

For the molecule `CC[C@@H](NC(=O)c1cc(-c2csc(C(=O)NCc3ccc(F)cc3)c2)cn2nc(N)nc12)C(F)(F)F` [Compound 126], the IC50 in test [1] stood at 3400 nM; in test [2], 980 nM.

`CC[C@@H](NC(=O)c1cc(-c2csc(C(=O)N[C@@H](C)c3ccc(F)cc3)c2)cn2nc(N)nc12)C(F)(F)F` [Compound 127]: the IC50 in test [1] stood at 8300 nM; in test [2], 930 nM.

For `CC(C)NC(=O)c1cc(-c2csc(C(=O)NCC3CC3)c2)cn2nc(N)nc12` [Compound 128], the IC50 was determined as 620 nM in test [1] and 110 nM in test [2].

`CC(C)NC(=O)c1cc(-c2csc(C(=O)NC3COC3)c2)cn2nc(N)nc12` [Compound 129]: the half-inhibitory concentration (IC50) in test [1] worked out at 800 nM; in test [2], 290 nM.

For `COC[C@H](NC(=O)c1cc(-c2cc(C(=O)NC(C)C)c3nc(N)nn3c2)cs1)c1ccc(F)cc1` [Compound 130], the concentration for half-maximal inhibition (IC50) is 120 nM in test [1] and 14 nM in test [2].

As to `CC(C)NC(=O)c1cc(-c2csc(C(=O)NC3CC(C)(C)Oc4ccccc43)c2)cn2nc(N)nc12` (stereo not shown) [Compound 131], the IC50 in test [1] amounted to 1500 nM; in test [2], 63 nM.

For `CC(C)NC(=O)c1cc(-c2csc(C(=O)NC3CC(C)(C)Oc4ccccc43)c2)cn2nc(N)nc12` (stereo not shown) [Compound 132], the figures for the IC50 in test [1] and in test [2] were 730 nM and 28 nM, respectively.

Take `CC[C@H](C)NC(=O)c1cc(-c2csc(C(=O)N[C@H](CC)c3ccc(F)cc3)c2)cn2nc(N)nc12` [Compound 133]: the IC50 in test [1] is 240 nM; in test [2], 10 nM.

As to `CC[C@@H](NC(=O)c1cc(-c2cc(C(=O)NC(C)C)c3nc(N)nn3c2)cs1)c1ccc(F)cc1` [Compound 134], the figures for the IC50 in test [1] and in test [2] were 680 nM and 36 nM, respectively.

Regarding `CC[C@@H](NC(=O)c1cc(-c2cc(C(=O)N[C@H]3CCOC3)c3nc(N)nn3c2)cs1)c1ccc(F)cc1` [Compound 135], the IC50 came out at 250 nM in test [1] and 7.4 nM in test [2].

With `CC[C@@H](C)NC(=O)c1cc(-c2csc(C(=O)N[C@H](CC)c3ccc(F)cc3)c2)cn2nc(N)nc12` [Compound 136], the IC50 in test [1] was determined as 5600 nM; in test [2], 63 nM.

Regarding `CC[C@H](NC(=O)c1cc(-c2cc(C(=O)NC3CCC3)c3nc(N)nn3c2)cs1)c1ccc(F)cc1` [Compound 137], the half-inhibitory concentration (IC50) in test [1] is 300 nM; in test [2] it was 9.7 nM.

Turning to `CC[C@H](C)NC(=O)c1cc(-c2csc(C(=O)N[C@@H](COC)c3ccc(F)cc3)c2)cn2nc(N)nc12` [Compound 138], the IC50 in test [1] was 31 nM; in test [2] it was 4.2 nM.

As usually defined, the IC50 is the concentration that inhibits the measured activity by half.
